Test results published in article PMC6273899 (Molecules, 2016).
Converted amounts (≈) assume the structure as drawn. “And” between values parts separate entries of the source, which are not always exact repeats. Equal entries are not always repeated. Where two headings read alike, the source gives them in different places. Square brackets hold non-standard residues; d marks the D form. Ends that are not written are not given here. Peptide text beside a SMILES is read from it.

What was measured:
[1] = test system: Candida albicans (NCPF 1467); type: cell-based
Procedure: (§1) The antimicrobial activity was evaluated by minimal inhibitory concentration (MIC) and minimum bactericidal concentration (MBC) assays using broth microdilution methods and in vitro assays against reference strains of microorganisms; a Gram-positive bacterium, a Gram-negative bacterium, and a yeast, respectively, Staphylococcus aureus (NCTC 10788), Escherichia coli (NCTC 10418), and Candida albicans (NCPF 1467). Briefly, the reference strains were incubated in Muller-Hinton Broth (MHB) until logarithmic phase growth was achieved which was assessed by the optical density (OD) of the culture at 550 nm. The cultures were subjected to dilution to obtain 1 × 10^6 colony-forming units (cfu)/mL for bacteria or to 5 × 10^5 cfu/ml for the yeast. Serial peptide dilutions and cultures were loaded into a 96-well microtiter plate obtaining suspensions containing 1–512 mg/L tested peptides. After incubating at 37 °C for 24 h, MIC values were determined as the lowest concentration which produced a similar OD value to the negative control (medium only). Then 10 μL of inhibited culture from each well was subcultured on Muller-Hinton Agar (MHA) and incubated for 24 h. The MBC values were defined as the minimum concentration which effected no growth.

[2] = test system: Escherichia coli (NCTC 10418); type: cell-based
Procedure: as §1

[3] = test system: Staphylococcus aureus (NCTC 10788); type: cell-based
Procedure: as §1

trypsin [4] = details: 1 mg trypsin with 1 mg peptide in 1 mL PBS, MALDI-TOF/MS
Procedure: (§2) Two different media were used to appraise the stability and degradation sites of peptides, trypsin, and horse serum, respectively. For the trypsin assay, 1 mg of trypsin (Sigma-Aldrich) with 1 mg of peptide were incubated in 1 mL PBS for 72 h. Whilst for horse serum, the medium was prepared with 25% horse serum/RPMI medium (v/v) and incubated at 37 °C for 15 min. Peptide stock solution was added into the serum medium to obtain a solution having a final concentration of 1 mg/mL and test samples were kept at 37 °C for 72 h. At different time points, 20 μL samples were transferred into 100 μL of 0.25% (v/v) TFA/water which caused reaction termination. For the serum-digestion, samples were kept at 4 °C and centrifuged at 13,000 rpm for 15 min and the supernatants were then analysed by MALDI-TOF/MS.

[5] = 25% horse serum/RPMI medium (v/v), 1 mg/mL peptide, 37 °C up to 72 h, MALDI-TOF/MS
Procedure: as §2

[6] = test system: defibrinated horse erythrocytes; test: Haemolysis assay; type: cell-based; details: 2% (v/v) horse erythrocytes in PBS, 1 to 512 mg/L peptide, 37 °C 120 min, OD 550 nm; 100% = 1% Triton X-100
Procedure: The haemolytic activity of peptides against defibrinated horse erythrocytes (TCS Biosciences Ltd., Botolph Claydon, Buckingham, UK) was determined by comparing the degree of lysis after incubating tested peptides with prewashed red cell suspensions for 2 h. A 2% suspension (v/v) was formed with prewashed defibrinated horse erythrocytes and sodium phosphate-buffered saline (PBS). Peptides were incubated with this 2% suspension in a final concentration range from 1 to 512 mg/L and all the samples were kept at a constant 37 °C for 120 min. Negative controls and positive controls were PBS alone and PBS containing Triton X-100 (Sigma-Aldrich, St. Louis, MO, USA), respectively. The sample supernatants were used to assess the extent of haemolysis by measuring the OD value at 550 nm.

[7] = 25% horse serum/RPMI medium (v/v); details: 37 °C, up to 72 h
trypsin [8] = test: 1 mg of trypsin (Sigma-Aldrich) with 1 mg of peptide in 1 mL PBS; details: up to 72 h
[9] = 10 μL of inhibited culture subcultured on Muller-Hinton Agar, 24 h, minimum concentration with no growth
[10] = broth microdilution, Muller-Hinton Broth, 5 × 10^5 cfu/ml, 1–512 mg/L peptide, 37 °C 24 h, OD read-out, NCPF 1467
[11] = broth microdilution, Muller-Hinton Broth, 1 × 10^6 cfu/mL, 1–512 mg/L peptide, 37 °C 24 h, OD read-out, NCTC 10418
[12] = broth microdilution, Muller-Hinton Broth, 1 × 10^6 cfu/mL, 1–512 mg/L peptide, 37 °C 24 h, OD read-out, NCTC 10788

## CC[C@H](C)[C@H](NC(=O)[C@H](C)NC(=O)[C@@H](CCCCN)NC(=O)[C@@H]1CCCN1C(=O)[C@@H](NC(=O)[C@H](CC(C)C)NC(=O)[C@H](CO)NC(=O)[C@H](CC(C)C)NC(=O)[C@@H](N)Cc1ccccc1)[C@@H](C)CC)C(=O)N[C@H](CCCCN)C(=O)N[C@@H](C)C(=O)N[C@H](C(=O)NCC(=O)N[C@H](C(=O)N[C@H](CCCCN)C(=O)N[C@@H](C)C(=O)N[C@H](CCCCN)C(=O)N[C@H](CCCCN)C(=O)N[C@@H](Cc1ccccc1)C(N)=O)C(C)C)C(C)C [PS-PT2a] (H-FLSLIP[dK]AI[dK]AVGV[dK]A[dK][dK]F-NH2)
[1]; [9]
  MBC C. albicans: 256 mg/L (≈ 124 µM)
[1]; [10]
  MIC C. albicans: 256 mg/L (≈ 124 µM)
[2]; [9]
  MBC E. coli: >512 mg/L
[2]; [11]
  MIC E. coli: >512 mg/L
[3]; [9]
  MBC S. aureus: >512 mg/L
[3]; [12]
  MIC S. aureus: >512 mg/L
Trypsin [4]; up to 72 h
  Catabolites generated by incubation with trypsin (species detected, incl. intact 1–19): 1–19 FLSLIPKAIKAVGVKAKKF
  time stable in trypsin solution: ≥ 48 h
[5]; pre-incubated 37 °C 15 min
  stability in serum (in words): relatively stable after 72 h

## CC[C@H](C)[C@H](NC(=O)[C@H](C)NC(=O)[C@@H](CCCCN)NC(=O)[C@@H]1CCCN1C(=O)[C@@H](NC(=O)[C@H](CC(C)C)NC(=O)[C@H](CO)NC(=O)[C@H](CC(C)C)NC(=O)[C@@H](N)Cc1ccccc1)[C@@H](C)CC)C(=O)N[C@@H](CCCCN)C(=O)N[C@@H](C)C(=O)N[C@H](C(=O)NCC(=O)N[C@H](C(=O)N[C@@H](CCCCN)C(=O)N[C@@H](C)C(=O)N[C@@H](CCCCN)C(=O)N[C@@H](CCCCN)C(=O)N[C@@H](Cc1ccccc1)C(N)=O)C(C)C)C(C)C [PS-PT2b] (H-FLSLIP[dK]AIKAVGVKAKKF-NH2)
[1]; [9]
  MBC C. albicans: 64 mg/L (≈ 31.1 µM)
[1]; [10]
  MIC C. albicans: 32 mg/L (≈ 15.6 µM)
[2]; [9]
  MBC E. coli: 256 mg/L (≈ 124 µM)
[2]; [11]
  MIC E. coli: 256 mg/L (≈ 124 µM)
[3]; [9]
  MBC S. aureus: 512 mg/L (≈ 249 µM)
[3]; [12]
  MIC S. aureus: 256 mg/L (≈ 124 µM)
Trypsin [4]; up to 72 h
  degradation by trypsin (in words): hydrolytically-degraded after a 30 s incubation
Trypsin [4]
  scissile site with trypsin: Lys^10-Ala^11
[5]
  Catabolites generated by incubation with serum (species detected, incl. intact 1–19): 1–17 […] and 1–19 FLSLIPKAIKAVGVKAKKF
  incubation time in serum after which fragments 1–15, 1–14 and 1–17 were observed: > 48 h
[5]; pre-incubated 37 °C 15 min
  stability in serum (in words): strong stability

## FLSLIPHAIKAVGVHAKHF-NH2 [PS-PT1]
[1]; NCPF 1467, 24 h
  MBC C. albicans: 256 mg/L
  MIC C. albicans: 128 mg/L
[2]; NCTC 10418, 24 h
  MBC E. coli: >512 mg/L
  MIC E. coli: 512 mg/L
[3]; NCTC 10788, 24 h
  MBC S. aureus: 256 mg/L
  MIC S. aureus: 128 mg/L

## FLSLIPHAINAVGVHAKHF-NH2 [PS-PT]
[1]; NCPF 1467, 24 h
  MBC C. albicans: >512 mg/L
  MIC C. albicans: 512 mg/L
[2]; NCTC 10418, 24 h
  MBC E. coli: >512 mg/L
  MIC E. coli: >512 mg/L
[3]; NCTC 10788, 24 h
  MBC S. aureus: >512 mg/L
  MIC S. aureus: 512 mg/L

## FLSLIPKAIKAVGVKAKKF-NH2 [PS-PT2] [listing 1 of 2 here]
[1]; [9]
  MBC C. albicans: 32 mg/L
[1]; [10]
  MIC C. albicans: 16 mg/L
[2]; [9]
  MBC E. coli: >512 mg/L
[2]; [11]
  MIC E. coli: 512 mg/L
[3]; [9]
  MBC S. aureus: 64 mg/L
[3]; [12]
  MIC S. aureus: 64 mg/L
[6]
  haemolytic effect (in words): negligible haemolytic effects
Trypsin [4]; up to 72 h
  time in which the original peptide was completely cleaved by trypsin: ≤ 30 s
Trypsin [4]
  scissile site with trypsin: Lys^7-Ala^8
[5]; pre-incubated 37 °C 15 min
  time after which peptide was completely degraded in serum: ≤ 30 min

## FLSLIPKAIKAVGVKAKKF-NH2 [PS-PT2] [listing 2 of 2 here]
[7]
  cleaved bond: Lys7-Ala8, major
  fragment found: 1–16 fragment (FLSLIPKAIKAVGVKA-), minor, 1 min
Trypsin [8]
  cleaved bond: Lys7-Ala8, major, 30 s
  fragment found: 1–17 FLSLIPKAIKAVGVKAK, 4 min

## FLSLIPKAIKAVGVKAKKF-NH2 [PS-PT2a]
[7]
  fragment found: 2–7 fragments (LSLIPK), minor, 4 h
Trypsin [8]
  not cleaved: stable in trypsin solution for up to 48 h

## FLSLIPKAIKAVGVKAKKF-NH2 [PS-PT2b]
[7]
  fragment found: 1–17 (FLSLIPKAIKAVGVKAK), >48 h
Trypsin [8]
  cleaved bond: Lys10-Ala11, 30 s
